“Also recorded” adds a separate entry of the source.
What was measured:
[1] = system: microHeart cells (human induced pluripotent stem cell-derived cardiac cells); experiment: Survival of irradiated microHeart cells by trypan blue staining; assay type: cell-based
Method: Cell survival was measured by trypan blue staining. The number of surviving cells 24 hours after irradiation is plotted. […] Cell survival was measured by trypan blue staining. The number of surviving cells 72 hours after irradiation is plotted.
Further studies using genistein were conducted in microHeart cells (StemoniX, Maple Grove, MN) exposed to different types of radiation. […] Cell survival was evaluated 24 hours after radiation exposure. […] Cell survival was evaluated 72 hours after radiation exposure. […] Moreover, since cell death causes the release of pro-inflammatory signals, protecting cells from death may reduce inflammation.

[2] = system: NF-κB, pro-inflammatory cytokines (IL-1, IL-6, TNFα), pro-fibrotic proteins (TGFβ, MMP-2, MMP-9, LDH); details: literature reports; cited from earlier work
[3] = Solubility in pharmaceutically acceptable solvents; assay type: physicochemical; details: several pharmaceutically acceptable solvents
Excerpt: The relative amount of genistein included in such a suspension can be varied to yield a formulation having a desired total content of genistein.

SMILES: O=c1c(-c2ccc(O)cc2)coc2cc(O)cc(O)c12 [genistein, 5,7-dihydroxy-3-(4-hydroxyphenyl)-4H-chromen-4-one]
- killing effect of γ-radiation (cell survival) ([1]; 0.5 μM or 5 μM, 24 hours before 1 Gy γ-radiation, survival 24 hours after irradiation): the killing effect was mitigated by genistein; also recorded: Genistein treatment was radioprotective
- killing effect of mixed field radiation (cell survival) ([1]; 0.5 μM, 24 hours before 1 Gy mixed field radiation (˜32% neutron, −68% gamma), survival 72 hours after irradiation): the killing effect was again mitigated by genistein; also recorded: genistein was radioprotective
- expression of NF-κB, pro-inflammatory cytokines and pro-fibrotic proteins [2]: reduce expression
- solubility [3]: low to virtually no solubility

— US20240058299A1 (Humanetics Corporation, priority 2021, published 2024)
